Measured values reported in patent US11007136B2, “Cosmetic composition for wrinkle reduction containing gypenoside isolated from Gynostemma pentaphyllum” (CELLTRION INC., priority 2015, dated 2021).

Experiment: Stability of the fraction in raw material solution (HPLC content of UL4, UL5)
Type: physicochemical
Conditions: for content stability Results: over 12 weeks
Description: A solution obtained by dissolving powder of the Gynostemma pentaphyllum gypenoside fraction at a concentration of 4% in 100 mL of a mixed solvent of propylene glycol, glycerin and distilled water at a ratio of 5:3:2 was used to identify stability of the Gynostemma pentaphyllum gypenoside fraction in a raw material state. While the solution was being stored under a condition of 4° C., 30° C. and 45° C. and sunlight for 12 weeks, changes with passage of time (% compared to an initial content) in the gypenosides UL4 and UL5, which were index ingredients for quantification out of the Gynostemma pentaphyllum gypenosides, were observed through an HPLC analysis and results thereof were indicated in Table 3.

| content, % compared to an initial content (4° C., 1 week) | content, % compared to an initial content (4° C., 2 weeks) | content, % compared to an initial content (4° C., 4 weeks) | content, % compared to an initial content (4° C., 8 weeks) | content, % compared to an initial content (4° C., 12 weeks) | content stability Results (4° C.) | content, % compared to an initial content (30° C., 1 week) | content, % compared to an initial content (30° C., 2 weeks) | content, % compared to an initial content (30° C., 4 weeks) | content, % compared to an initial content (30° C., 8 weeks) | content, % compared to an initial content (30° C., 12 weeks) | content stability Results (30° C.) | content, % compared to an initial content (45° C., 1 week) | content, % compared to an initial content (45° C., 2 weeks) | content, % compared to an initial content (45° C., 4 weeks) | content, % compared to an initial content (45° C., 8 weeks) | content, % compared to an initial content (45° C., 12 weeks) | content stability Results (45° C.) | content, % compared to an initial content (Sunlight, 1 week) | content, % compared to an initial content (Sunlight, 2 weeks) | SMILES | other results |
| --- | --- | --- | --- | --- | --- | --- | --- | --- | --- | --- | --- | --- | --- | --- | --- | --- | --- | --- | --- | --- | --- |
| 100.2% | 98.1% | 96.9% | 98.3% | 96.1% | Stable | 102.8% | 99.9% | 98.7% | 96.5% | 96.6% | Stable | 97.1% | 96.3% | 102.7% | 97.5% | 102.4% | Stable | 97.6% | 96.6% | CC(C)=CC1C[C@](O)([C@H]2CC[C@]3(C)[C@@H]2CC[C@@H]2[C@@]4(C=O)CC[C@H](O[C@@H]5OC[C@H](O)[C@H](O[C@@H]6OC[C@@H](O)[C@H](O)[C@H]6O)[C@H]5O[C@@H]5O[C@@H](C)[C@H](O)[C@@H](O)[C@H]5O)C(C)(C)[C@@H]4CC[C@]23C)[C@H](O)O1 (stereo partly drawn) [Gypenoside UL4, (23ξ)-3β,20β,21α-trihydroxy-19-oxo-21,23-epoxy-dammar-24-ene-3-O-[α-L-rhamnopyranosyl (1→2)][β-D-xylopyranosyl (1→3)]-α-L-arabinopyranoside] | content, % compared to an initial content (Sunlight, 4 weeks): 96.6%; content, % compared to an initial content (Sunlight, 8 weeks): 98.1%; content, % compared to an initial content (Sunlight, 12 weeks): 97.1%; content stability Results (Sunlight): Stable |
| 98.8% | 101.3% | 97% | 97.9% | 98.1% | Stable | 101.8% | 98.2% | 99% | 101.2% | 102.9% | Stable | 97.6% | 97.5% | 96.9% | 99.2% | 103.8% | Stable | 101.1% | 98.4% | CC(C)=CC1C[C@](O)([C@H]2CC[C@]3(C)[C@@H]2CC[C@@H]2[C@@]4(C=O)CC[C@H](O[C@@H]5OC[C@H](O)[C@H](O[C@@H]6O[C@H](CO)[C@@H](O)[C@H](O)[C@H]6O)[C@H]5O[C@@H]5O[C@@H](C)[C@H](O)[C@@H](O)[C@H]5O)C(C)(C)[C@@H]4CC[C@]23C)[C@H](O)O1 (stereo partly drawn) [Gypenoside UL5, (23ξ)-3β,20β,21α-trihydroxy-19-oxo-21,23-epoxy-dammar-24-ene-3-O-[α-L-rhamnopyranosyl (1→2)][β-D-glucopyranosyl (1→3)]-α-L-arabinopyranoside] | content, % compared to an initial content (Sunlight, 4 weeks): 98.8%; content, % compared to an initial content (Sunlight, 8 weeks): 97.2%; content, % compared to an initial content (Sunlight, 12 weeks): 97.8%; content stability Results (Sunlight): Stable |
